According to patent publication US11213516B2, “Intravaginally applicable devices comprising antiviral compounds” (AICURIS ANTI-INFECTIVE CURES GMBH, priority 2017, dated 2022):
“And” between values parts separate entries of the source, which are not always exact repeats. Identical values can stand only once. Marks after values point to notes of the source that are not given here.

Test: Plasma concentration after intravaginal administration of vaginal ring
Type: in vivo, Cynomolgus monkeys
Settings: for Plasma concentration of Pritelivir free base: individual animals; for Plasma concentration of Pritelivir free base, Mean: group mean
Protocol: The study was performed in four single dose phases with 28-day sampling period after Phases 1 and 2 (7-day washout period between doses). Vaginal rings were investigated for Pritelivir free base and Pritelivir mesylate salt at two dose levels per formulation. The test items were applied as vaginal ring in Phases 1 and 2 to female monkeys. The study design is below in the Table 3.
Venous blood samples were taken from all animals at the following times in relation to dosing.
• Blood sample site Femoral site • Blood volume 1.0 mL • Anticoagulant For phase 1 samples, Day 1-3 only, blood was sampled into standard HLS vials containing lithium heparin and 20 μL aqueous phosphoric acid (3.5 molar). Thereafter, blood was collected into tubes containing lithium heparin only. Plasma was obtained from all samples by centrifugation. Samples were appropriately labeled and stored deep frozen (−20° C. or below) until analysis • Total no. of blood samples 350 Vaginal Fluid Sampling
After suitable dilution, plasma and vaginal samples were analyzed on UPLC system Waters Acquity UPLC-HSS PFP column with 1.8 μm particles (100×2.1 mm) by gradient elution using 0.1% formic acid and methanol containing 0.1% formic acid. For detection, a time-of-flight mass spectrometer (Xevo GS-2 QTOF, Waters) was used operating in positive ionization mode (MSe analysis). The samples were analyzed for their content of Pritelivir free base.
The study was designed to obtain information on the time-course of unchanged test compound concentrations in plasma and vaginal fluid/tissue, following single intravaginal administration of rings to female Cynomolgus monkeys. Objectives of this study were to determine the safety and tolerance of Pritelivir loaded rings, as well as systemic and local exposure (plasma, vaginal fluid and vaginal and vulval tissue, respectively). Local exposures were compared with in vitro efficacy data of Pritelivir to get an idea on initial pharmacokinetic/pharmacodynamic (PK/PD) parameters for vaginal rings, i.e. to assess the potential ability of a Pritelivir loaded ring to suppress viral replication in the target tissue. Table 9 gives an overview on the EC50 values of Pritelivir on HSV-1 and HSV-2 Data source: Field, H. J., et al., Baseline sensitivity of HSV-1 and HSV-2 clinical isolates and defined acyclovir-resistant strains to the helicase-primase inhibitor pritelivir. Antiviral Res, 2013. 100(2): p. 297-9. EC50=50% effective concentration.

[1] = ring 40 mg free base, Phase 1 Group 1, 2 d
[2] = ring 40 mg free base, Phase 1 Group 1, 3 d
[3] = ring 240 mg free base, Phase 2 Group 1, 2 d
[4] = ring 240 mg free base, Phase 2 Group 1, 3 d
[5] = ring 240 mg free base, Phase 2 Group 1, 4 d
[6] = ring 240 mg free base, Phase 2 Group 1, 7 d
[7] = ring 240 mg free base, Phase 2 Group 1, 10 d
[8] = ring 240 mg free base, Phase 2 Group 1, 14 d
[9] = ring 240 mg free base, Phase 2 Group 1, 17 d
[10] = ring 240 mg free base, Phase 2 Group 1, 21 d
[11] = ring 240 mg free base, Phase 2 Group 1, 24 d
[12] = ring 240 mg free base, Phase 2 Group 1, 28 d

Plasma concentration of Pritelivir free base (ring 40 mg free base, Phase 1 Group 1, 0.0833 d): 6.03 ^ μg/L and 4.53 ^ μg/L
Plasma concentration of Pritelivir free base (ring 40 mg free base, Phase 1 Group 1, 0.167 d): 6.90 ^ μg/L and 7.56 ^ μg/L
Plasma concentration of Pritelivir free base, Mean [1]: 10.2 ^ μg/L
Plasma concentration of Pritelivir free base, Mean [2]: 9.20 ^ μg/L
Plasma concentration of Pritelivir free base (ring 40 mg free base, Phase 1 Group 1, 21 d): 3.08 ^a μg/L and 2.67 ^a μg/L
Plasma concentration of Pritelivir free base (ring 40 mg free base, Phase 1 Group 1, 24 d): 2.77 ^a μg/L
Plasma concentration of Pritelivir free base (ring 40 mg free base, Phase 1 Group 1, 28 d): 2.76 ^a μg/L and 3.00 ^a μg/L
Plasma concentration of Pritelivir free base (ring 240 mg free base, Phase 2 Group 1, 0.0417 d): 2.96 ^a μg/L
Plasma concentration of Pritelivir free base (ring 240 mg free base, Phase 2 Group 1, 0.0833 d): 2.95 ^a μg/L
Plasma concentration of Pritelivir free base, Mean [3]: 14.3 ^ μg/L
Plasma concentration of Pritelivir free base [3]: 10.1 ^ μg/L and 23.0 μg/L and 9.89 μg/L
Plasma concentration of Pritelivir free base, Mean [4]: 17.0 ^ μg/L
Plasma concentration of Pritelivir free base, Mean [5]: 17.0 ^ μg/L
Plasma concentration of Pritelivir free base, Mean [6]: 13.1 ^ μg/L
Plasma concentration of Pritelivir free base, Mean [7]: 8.80 ^ μg/L
Plasma concentration of Pritelivir free base, Mean [8]: 8.70 ^ μg/L
Plasma concentration of Pritelivir free base, Mean [9]: 8.67 ^ μg/L
Plasma concentration of Pritelivir free base, Mean [10]: 6.97 ^ μg/L
Plasma concentration of Pritelivir free base, Mean [11]: 8.97 ^ μg/L
Plasma concentration of Pritelivir free base, Mean [12]: 8.79 ^ μg/L
SMILES: Cc1nc(N(C)C(=O)Cc2ccc(-c3ccccn3)cc2)sc1S(N)(=O)=O [Pritelivir free base]
Plasma concentration of Pritelivir free base (ring 40 mg free base, Phase 1 Group 1, 0.333 d): 8.54 ^ μg/L and 10.9 ^ μg/L and 3.97 ^ μg/L
Plasma concentration of Pritelivir free base [1]: 4.07 ^ μg/L and 11.6 ^ μg/L and 18.3 ^ μg/L and 6.75 ^ μg/L
Plasma concentration of Pritelivir free base [2]: 4.80 ^ μg/L and 7.29 ^ μg/L and 18.4 ^ μg/L and 6.30 ^ μg/L
Plasma concentration of Pritelivir free base (ring 40 mg free base, Phase 1 Group 1, 4 d): 3.41 ^a μg/L and 5.30 ^ μg/L and 3.51 ^a μg/L
Plasma concentration of Pritelivir free base (ring 40 mg free base, Phase 1 Group 1, 7 d): 3.22 ^a μg/L and 3.86 ^a μg/L and 4.00 ^ μg/L
Plasma concentration of Pritelivir free base (ring 40 mg free base, Phase 1 Group 1, 10 d): 3.02 ^a μg/L and 3.74 ^a μg/L and 2.75 ^a μg/L
Plasma concentration of Pritelivir free base (ring 40 mg free base, Phase 1 Group 1, 14 d): 2.83 ^a μg/L and 4.32 ^ μg/L and 3.29 ^a μg/L
Plasma concentration of Pritelivir free base (ring 40 mg free base, Phase 1 Group 1, 17 d): 4.08 ^ μg/L and 3.48 ^a μg/L and 2.59 ^a μg/L
Plasma concentration of Pritelivir free base (ring 240 mg free base, Phase 2 Group 1, 0.167 d): 2.82 ^a μg/L and 8.45 μg/L and 4.56 μg/L and 2.49 ^a μg/L
Plasma concentration of Pritelivir free base (ring 240 mg free base, Phase 2 Group 1, 0.333 d): 3.78 ^a μg/L and 10.1 μg/L and 5.80 μg/L and 3.79 ^a μg/L
Plasma concentration of Pritelivir free base [4]: 15.6 ^ μg/L and 15.2 μg/L and 10.2 ^ μg/L
Plasma concentration of Pritelivir free base [5]: 13.9 ^ μg/L and 16.1 μg/L and 12.2 ^ μg/L
Plasma concentration of Pritelivir free base [6]: 11.8 ^ μg/L and 14.2 μg/L and 10.3 ^ μg/L
Plasma concentration of Pritelivir free base [7]: 8.27 ^ μg/L and 9.04 μg/L and 8.43 ^ μg/L
Plasma concentration of Pritelivir free base [8]: 6.33 ^ μg/L and 8.33 μg/L and 10.6 ^ μg/L
Plasma concentration of Pritelivir free base [9]: 5.58 ^ μg/L and 9.84 μg/L and 8.41 ^ μg/L
Plasma concentration of Pritelivir free base [10]: 6.02 ^ μg/L and 8.37 μg/L and 5.71 ^ μg/L
Plasma concentration of Pritelivir free base [11]: 4.96 ^ μg/L and 11.3 μg/L and 9.86 ^ μg/L
Plasma concentration of Pritelivir free base [12]: 5.57 ^ μg/L and 9.32 μg/L and 7.55 ^ μg/L
